Structures are written as SMILES. Bridge positions count the residues as written; N and C are the ends. Square brackets hold non-standard residues; d marks the D form. Peptide text beside a SMILES is read from it. * marks the point of attachment. Phe(4-COOH) = N[C@@H](Cc1ccc(C(=O)O)cc1)C(=O)O; Bip = N[C@@H](Cc1ccc(-c2ccccc2)cc1)C(=O)O; Phe(3-Cl) = N[C@@H](Cc1cccc(Cl)c1)C(=O)O; Phe(3-Me) = Cc1cccc(C[C@H](N)C(=O)O)c1; Val(3-OH) = CC(C)(O)[C@H](N)C(=O)O; 4Pal = N[C@@H](Cc1ccncc1)C(=O)O; Cha = N[C@@H](CC1CCCCC1)C(=O)O; Cit = NC(=O)NCCC[C@H](N)C(=O)O; Carboxymethyl = O=C(O)C*; NMeA = CN[C@@H](C)C(=O)O; Pra = C#CC[C@H](N)C(=O)O; Dab = NCC[C@H](N)C(=O)O; Nva = CCC[C@H](N)C(=O)O; Dap = NC[C@H](N)C(=O)O

In this experiment the target is T1, PE-labeled human PD-L1-Ig binding to Jurkat cell line over-expressing human PD-1 (Jurkat-PD-1) (Homo sapiens, UniProt Q15116).
T1 construct: expressed in transfected cells; host or cells: Jurkat
T1 sequence (Q15116 25-288): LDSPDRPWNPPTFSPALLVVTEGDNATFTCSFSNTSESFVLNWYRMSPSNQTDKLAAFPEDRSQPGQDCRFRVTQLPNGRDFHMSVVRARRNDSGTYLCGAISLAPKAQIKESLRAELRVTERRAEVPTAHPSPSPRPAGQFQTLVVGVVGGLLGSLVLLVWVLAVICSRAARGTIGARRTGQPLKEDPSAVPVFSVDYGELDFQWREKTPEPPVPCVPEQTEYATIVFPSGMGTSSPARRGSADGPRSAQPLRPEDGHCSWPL
The experiment in a line: Jurkat-PD-1 Cell Binding High-Content Screening Assay (CBA): Method 1. The following applies: Jurkat-hPD-1 cells, PE-labeled PD-L1-Ig 20 nM final; read-out: Jurkat HPDL1 PD1 IC50 (uM) (Method 1).
Turning to `CC(C)C[C@@H]1NC(=O)[C@H](CCN)NC(=O)[C@@H](CC(C)C)NC(=O)[C@H](C)N(C)C(=O)[C@H](CCCNC(=N)N)NC(=O)[C@H](Cc2ccc(-c3ccccc3)cc2)NC(=O)[C@H](C(C)C)NC(=O)[C@H](Cc2c[nH]c3ccccc23)NC(=O)[C@H](CC(=O)O)NC(=O)[C@H](Cc2ccc(O)cc2)NC(=O)[C@H](CCCNC(=N)N)NC(=O)CSC[C@@H](C(=O)N[C@@H](C)C(N)=O)NC(=O)[C@H]([C@@H](C)O)NC(=O)[C@H](C(C)C)NC1=O` [Compound 1343] ({CH2CO}-RYDWV[Bip]R[NMeA][dL][Dab]LVTCA-NH2; thioether N-14), the IC50 – broadly, the concentration needed to halve the response being measured – was determined as 0.04 µM.

Consider `CC(C)C[C@@H]1NC(=O)[C@H](CCN)NC(=O)[C@@H](CC(C)C)NC(=O)[C@H](C)N(C)C(=O)[C@H](CCCNC(=N)N)NC(=O)[C@H](Cc2ccc(-c3ccccc3)cc2)NC(=O)[C@H](C(C)C)NC(=O)[C@H](Cc2c[nH]c3ccccc23)NC(=O)[C@H](CC(=O)O)NC(=O)[C@H](Cc2ccc(O)cc2)NC(=O)[C@H](CC(N)=O)NC(=O)CSC[C@@H](C(=O)NCC(N)=O)NC(=O)[C@H]([C@@H](C)O)NC(=O)[C@H](C(C)C)NC1=O` [Compound 1249] ({CH2CO}-NYDWV[Bip]R[NMeA][dL][Dab]LVTCG-NH2; thioether N-14), for which the IC50 was found to be 0.06 µM.

Regarding `C#CC[C@H](NC(=O)[C@@H](CC(N)=O)NC(=O)[C@@H]1CSCC(=O)N[C@@H](Cc2ccc(OCC(=O)O)cc2)C(=O)N[C@@H](Cc2ccc(OCC(=O)O)cc2)C(=O)N[C@@H](CC(=O)O)C(=O)N[C@@H](Cc2c[nH]c3ccccc23)C(=O)N[C@@H](C(C)C)C(=O)N[C@@H](Cc2ccc(-c3ccccc3)cc2)C(=O)N[C@@H]([C@@H](C)CC)C(=O)N(C)[C@@H](C)C(=O)N[C@H](CC(C)C)C(=O)N[C@@H](CCC)C(=O)N[C@@H](CC2CCCCC2)C(=O)N[C@@H](C(C)(C)O)C(=O)N[C@@H](CO)C(=O)N1)C(N)=O` [Compound 1718] ({CH2CO}-Y(Carboxymethyl)Y(Carboxymethyl)DWV[Bip]I[NMeA][dL][Nva][Cha][Val(3-OH)]SC[dN][Pra]-NH2; thioether N-14), the IC50 was found to be 0.03 µM.

On to `Cc1cccc(C[C@@H]2NC(=O)[C@H](CC(=O)O)NC(=O)[C@H](Cc3ccc(C(=O)O)cc3)NC(=O)[C@H](Cc3ccncc3)NC(=O)CSC[C@@H](C(N)=O)NC(=O)[C@H]([C@@H](C)O)NC(=O)[C@H](C(C)C)NC(=O)[C@H](CC(C)C)NC(=O)[C@H](CCN)NC(=O)[C@@H](CC(C)C)NC(=O)[C@H](C)N(C)C(=O)[C@H](CCCNC(N)=O)NC(=O)[C@H](Cc3ccc(-c4ccccc4)cc3)NC(=O)[C@H](C(C)C)NC2=O)c1` [Compound 1898] ({CH2CO}-[4Pal][Phe(4-COOH)]D[Phe(3-Me)]V[Bip][Cit][NMeA][dL][Dab]LVTC-NH2; thioether N-14), for which the IC50 stood at 0.07 µM.

Take `CC[C@H](C)[C@@H]1NC(=O)[C@H](Cc2ccc(-c3ccccc3)cc2)NC(=O)[C@H](C(C)C)NC(=O)[C@H](Cc2cccc(C)c2)NC(=O)[C@H](CC(=O)O)NC(=O)[C@H](Cc2ccc(O)cc2)NC(=O)[C@H](CC(N)=O)NC(=O)CSC[C@@H](C(=O)N[C@@H](CCN)C(N)=O)NC(=O)[C@H]([C@@H](C)O)NC(=O)[C@H](C(C)(C)O)NC(=O)[C@H](CC2CCCCC2)NC(=O)[C@H](CCN)NC(=O)[C@@H](CC(C)C)NC(=O)[C@H](C)N(C)C1=O` [Compound 1689] ({CH2CO}-NYD[Phe(3-Me)]V[Bip]I[NMeA][dL][Dab][Cha][Val(3-OH)]TC[Dab]-NH2; thioether N-14): the IC50 amounted to 0.02 µM.

On to `CC(C)C[C@@H]1NC(=O)[C@H](CCN)NC(=O)[C@@H](CC(C)C)NC(=O)[C@H](C)N(C)C(=O)[C@H](C(C)C)NC(=O)[C@H](Cc2ccc(-c3ccccc3)cc2)NC(=O)[C@H](C(C)C)NC(=O)[C@H](Cc2c[nH]c3ccccc23)NC(=O)[C@H](CC(=O)O)NC(=O)[C@H](Cc2cccc(Cl)c2)NC(=O)[C@H](CN)NC(=O)CSC[C@@H](C(=O)N[C@@H](C)C(N)=O)NC(=O)[C@H]([C@@H](C)O)NC(=O)[C@H](C(C)C)NC1=O` [Compound 1441] ({CH2CO}-[Dap][Phe(3-Cl)]DWV[Bip]V[NMeA][dL][Dab]LVTCA-NH2; thioether N-14), for which the IC50 is 0.09 µM.

Values taken from patent publication US20240409585A1, “MACROCYCLIC IMMUNOMODULATORS” (priority 2021, published 2024).
